Test results reported in patent US20150159180A1, “PROCESS FOR PRODUCTION OF C[…] USING PICHIA CARIBBICA AND ITS APPLICATION FOR QUORUM SENSING INHIBITION” (COUNCIL OF SCIENTIFIC & INDUSTRIAL RESEARCH, priority 2012, published 2015).

Experiments:
[1] = test system: Chromobacterium violaceum CV026; experiment: Violacein inhibition assay (quantitative), tube assay; type: cell-based
Method: This assay is based on a similar principle to the one described above, that is the presence of any quorum sensing inhibitor will quantitatively decrease the production of the purple pigment violacein which can then be estimated colorimetrically. This is a tube assay in which 100 μl of overnight culture of CV026 was inoculated in 10 ml LB broth containing the QS signal molecule (namely C6-HSL, C8-HSL or 3-oxo-C6-HSL) at appropriate concentrations. The test compound, Pichia sp. synthesized xylitol in the present invention, was then added at increasing concentrations in a series of test tubes. The violacein produced was extracted from the culture broth by dissolution of the pigment in DMSO and separating it from the cell mass by centrifugation. The amount of xylitol required to inhibit or substantially decrease the purple pigment production could be quantitatively estimated by measuring the optical density at 570 nm. Appropriate positive and negative controls were used. All experiments were done in triplicates for checking reproducibility.

[2] = test system: Chromobacterium violaceum mutant CV026; experiment: Violacein inhibition assay (qualitative), agar well; type: cell-based; conditions: QS signal molecule 12.5 μM, 30° C., 24 hours, FIG. 5
Method: This assay has been designed in such a way that a zone inhibition of Violacein synthesis can be seen around the agar well containing the probable QS Inhibitor. Chromobacterium violaceum mutant CV026 is used as the test organism which has the ability to respond to a variety of signal molecules. The QS signal molecule (12.5 μM) is added to 10 ml of Luria bertani soft agar containing 100 μl of overnight culture of CV026. The soft agar is then overlayed onto basal LA plate, and a 4 mm diameter well is dug in the centre of the plate using a sterile cork borer after the overlay is set. To the agar well 75 μl of appropriate concentration of the compound under investigation was added, and the plates were incubated at 30° C. for 24 hours. The diameter of zone of Violacein inhibition was then measured. Pure xylitol from sigma was used for comparative analysis.

[3] = increasing concentration of xylitol, CV026

In the case of `OC[C@@H](O)[C@H](O)[C@@H](O)CO` [Pichia xylitol, xylitol], the “antagonism of AHL signal and receptor interaction” value ([1]; CV026 based AHL antagonism assay, C6-HSL, C8-HSL and 3-oxo-C6-HSL) is reported as “able to antagonize not one but three different AHL signal and receptor interaction”, the “inhibitory effect on the organism” value [1, 3] is reported as “not inhibitory to the organism” and the “quorum sensing signal reception” value [1, 3] is reported as “severely impaired quorum sensing signal reception”. The “inhibition of Violacein production” value ([1]; increasing concentrations of xylitol, optical density at 570 nm, FIG. 6) was “could quantitatively inhibit Violacein production” and the “zone of inhibition of Violacein synthesis” value [2] was “zone of inhibition of Violacein synthesis around the agar well”.
